According to patent US20120046331A1, “Antifungal Agents and Uses Thereof” (priority 2010, published 2012):
≈ marks a conversion by molar mass, not a printed value. Where two headings read alike, the source gives them in different places.

Assays:
Experiment in all cases: MIC testing, modified CLSI M38-A2 for dermatophytes (Example 2)
T. rubrum = format: cell-based, Trichophyton rubrum; conditions: for MIC50: lowest concentration to inhibit 50% of the strains tested, n = 20
T. tonsurans = format: cell-based; conditions: n = 5 strains
Method: (§1) MIC testing was performed according to the modification of the CLSI M38-A2 standard for dermatophytes developed at the Center (CLSI. Reference Method for Broth Dilution Antifungal Susceptibility Testing of Filamentous Fungi; Approved Standard-Second Edition. CLSI document M38-A2 [ISBN 1-56238-668-9]. CLSI, 940 West Valley Road, Suite 1400, Wayne, Pa. 19087-1898 USA, 2008; Ghannoum M A, et al. Intra- and Interlaboratory Study of a Method for Testing the Antifungal Susceptibilities of Dermatophytes. 2004 J Clin Microbiol 42:(7): 2977-2979). Compound 8 and fluconazole were tested in combination using a checkerboard microdilution method. The interaction between Compound 8 and fluconazole was determined by FIC Index, or Fractional Inhibitory Concentration Index, which assigns a numerical value to the interaction of the two antifungals.

T. mentagrophytes = format: cell-based; conditions: n = 5 strains
Method: as §1

MIC50 (T. rubrum; Trichophyton rubrum, read-out: MIC50): 1 µg/mL (≈ 3.27 µM)
MIC90 (T. rubrum; Trichophyton rubrum, n = 20 strains): 1 µg/mL (≈ 3.27 µM)
MIC50 (T. rubrum): 1 µg/mL (≈ 3.27 µM)
MIC Range (T. rubrum; n = 20 strains): 0.25 to 4.0 µg/mL
MIC50 (T. tonsurans; Trichophyton tonsurans): 2 µg/mL
MIC90 (T. tonsurans; Trichophyton tonsurans): 4 µg/mL
MIC Range (T. tonsurans): 1.0 to 4.0 µg/mL
MIC50 (T. mentagrophytes; Trichophyton mentagrophytes): 16 µg/mL
MIC90 (T. mentagrophytes; Trichophyton mentagrophytes): 16 µg/mL
MIC Range (T. mentagrophytes): 2.0 to 16.0 µg/mL
SMILES: OC(Cn1cncn1)(Cn1cncn1)c1ccc(F)cc1F [Fluconazole, fluconazole]
